Source: patent US9314498B2, “Bacteriocin derived from Lactobacillus rhamnosus” (priority 2011, dated 2016)

Tests used:
[1] = system: Porphyromonas gingivalis LPS (P.g-LPS) on RAW264.7 macrophage-like cells, ccl2; assay: LPS inactivation: ccl2 secretion of RAW264.7 cells (ELISA); format: cell-based, mouse
Experimental: As a medium, RPMI 1640 medium supplemented with 10% FBS (Fetal Bovine Serum) (Biological industries, Haemek, Israel), 1% antibiotic and 1% L-glutamine was used. In each well of a 24-well plate, 400 μl of the medium was placed, and 100,000 cells/well of mouse-derived RAW264.7 macrophage-like cells were inoculated thereto.
The bacteriocin Kog1 or Kog2, which was the same as in Example 1, was incubated in an Eppendorf tube under each of the following 4 conditions together with Porphyromonas gingivalis LPS (manufactured by InvivoGen) (hereinafter referred to as P.g-LPS) and the same medium as described above, at 37° C. under a gas phase of 5% CO2 for 2 hours: (1) 100 ng/ml P.g-LPS positive control; (2) 100 ng/ml P.g-LPS+5 μM Kog1 or Kog2; (3) 100 ng/ml P.g-LPS+10 μM Kog1 or Kog2; (4) 100 ng/ml P.g-LPS+20 μM Kog1 or Kog2.
The above-described medium placed in each well of the 24-well plate was removed using a pipetteman, and the medium in the Eppendorf tube for each of the 4 conditions described above was placed in the plate, followed by culturing the cells in the well plate at 37° C. under a gas phase of 5% CO2 for 12 hours. Thereafter, the culture supernatant was collected, and the amount of a chemokine ccl2 or the amount of a cytokine TNF-α secreted into the medium was quantified by the ELISA method by measuring the absorbance at 450 nm using a microplate reader. Since both ccl2 and TNF-α are involved in formation of inflammation, analysis of the relationship between the endotoxin LPS and the bacteriocins Kog1 and Kog2 is possible.

[2] = Measurement of the isoelectric point of the synthesized peptides; format: physicochemical; settings: synthesized peptide
Description: Among antimicrobial peptides, hBD2 (human P-defensin-2 (see Eur J., 2002, Oral Sci. (109), 121-124)) is well known as a basic antimicrobial peptide, and has an isoelectric point of about 10. However, the isoelectric points of Kog1 and Kog2 of the embodiment 2 were higher than the isoelectric point of hBD2, and more similar to the isoelectric points of antimicrobial peptides derived from mammals. Thus, Kog1 and Kog2 were confirmed to have less cytotoxicity.

[3] = system: Aggregatibacter actinomycetemcomitans Hudoe001 strain; assay: Antimicrobial activity against Aggregatibacter actinomycetemcomitans Hudoe001; format: cell-based; settings: tested 0 to 50 μM
[4] = system: Streptococcus mutans NCTC10449 strain; assay: Antimicrobial activity against Streptococcus mutans NCTC10449; format: cell-based; settings: 0 to 100 μM, FIG. 4
MC3T3-E1 cells = assay: Differentiation into osteoblasts: Type-I collagen expression by real-time quantitative RT-PCR; format: cell-based, mouse
Experimental: MC3T3-E1 cells, which are mouse-derived osteoblast-like cells, were used. The MC3T3-E1 cells were cultured in α-modified Eagle's Medium (α-MEM) supplemented with 10% FBS (Biological industries, Haemek, Israel), L-glutamine, antibiotic mixture (Invitrogen), 50 μg/ml ascorbic acid (Sigma), and 0 nM, 250 nM, 500 nM or 1000 nM Kog2, at 37° C. under 5% CO2 on plastic or titanium. From the thus cultured MC3T3-E1 cells, total RNA was extracted using TRIzol reagent (Invitrogen), and cDNA was then prepared using ReverTra Ace reverse transcriptase (Toyobo Co., Ltd.). Subsequently, the prepared cDNA was used for analyzing expression of Type-I collagen, which is a differentiation marker for osteoblasts, and of β-actin, which is an endogenous control, by real-time quantitative RT-PCR. In the real-time quantitative RT-PCR, Type-I collagen was analyzed using the forward primer shown in SEQ ID NO: 8, the reverse primer shown in SEQ ID NO: 9 and the probe shown in SEQ ID NO: 10. β-actin was analyzed using the forward primer shown in SEQ ID NO: 11, the reverse primer shown in SEQ ID NO: 12, and the probe shown in SEQ ID NO: 13.

[5] = system: Porphyromonas gingivalis Hudoi001 strain; assay: Antimicrobial activity against Porphyromonas gingivalis Hudoi001; format: cell-based; settings: not shown in the figures
Experimental: (§1) The Candida albicans GDH18 strain was precultured using SD medium (Difco) at 37° C. for 24 hours under aerobic conditions. The Streptococcus sobrinus B-13 strain, Streptococcus mutans NCTC10449 strain and Streptococcus mutans Ingbritt strain were precultured using TSB medium (Difco) supplemented with 5% yeast extract (Difco) at 37° C. for 24 hours under aerobic conditions. The Porphyromonas gingivalis Hudoi001 strain and Aggregatibacter actinomycetemcomitans Hudoe001 strain were precultured using BHI medium (Difco) supplemented with hemin (5 mg/L) and vitamin K3 (1 mg/L) at 37° C. for 96 hours under anaerobic conditions with Anaero Pack System (Mitsubishi Gas Chemical Company, Inc.).
(§2) After the culture, the cells of the Candida, cariogenic bacteria and periodontal disease bacteria were collected by centrifugation at 1000×g, and washed twice with 1 mM phosphate buffer (pH 6.8). The cells were then suspended such that the final concentration was 1×10^8 cfu/ml or 1×10^7 cells/m. For suspension of the Streptococcus strains, ultrasonic treatment was also carried out.
That is, it is assumed that, in Examples described in Patent Literature 1, the Lactobacillus rhamnosus KO3 strain expressed Kog1 and Kog2, and the expressed Kog1 and Kog2 exerted antimicrobial activity against the Porphyromonas gingivalis Hudoi001 strain. […]

[6] = system: Candida albicans GDH18 strain; assay: Antimicrobial activity (CFU count, percentage of living cells) against Candida albicans GDH18; format: cell-based; settings: 37° C., 90 minutes, 1 mM phosphate buffer
Description: As the Candida, cariogenic bacteria and periodontal disease bacteria, the Candida albicans GDH18 strain, Streptococcus sobrinus B-13 strain, Streptococcus mutans NCTC10449 strain, Streptococcus mutans Ingbritt strain, Porphyromonas gingivalis Hudoi001 strain and Aggregatibacter actinomycetemcomitans Hudoe001 strain were used. The test strains were provided from Faculty of Dentistry, Hiroshima University, Japan, and Hiroshima University Dental Hospital.
as §1, §2
Evaluation of the antimicrobial activity was carried out by the method by Edgerton and others (1998) with some modifications. With 20 mL of 1 mM phosphate buffer containing 0 to 25 μM Kog1 or Kog2 synthesized in Example 1, 20 μl of the suspension of the Candida albicans GDH18 strain cultured and prepared by the method described in the above Preparation Example was mixed, and the resulting mixture was incubated at 37° C. for 90 minutes with shaking. As a control, 20 ml of 1 mM phosphate buffer alone was used. The reaction was stopped by addition of 360 ml of YNB medium (Difco), and the number of colonies formed (colony forming units; CFUs) was counted together with the number of colonies in the control, to determine the percentage of living bacterial cells. That is, the equation of: (CFUs of suspension containing Kog1 or Kog2/CFU ml^−1 of control suspension)×100 was used to calculate the percentage.

For “Kog2: peptide having the amino acid sequence shown in SEQ ID NO: 2, bacteriocin of Lactobacillus rhamnosus, synthesized by the tea-bag method (MTKVRSSRLRPLTLRLLSAPARAQFLTIACRAILRYDLINS; listed as Lactobacillus rhamnosus)”, the “amount of the chemokine ccl2 secreted” value ([1]; 100 ng/ml P.g-LPS + Kog2 above a certain level, as amount added increases) was “decreases”, the “amount of the chemokine ccl2 secreted” value ([1]; 100 ng/ml P.g-LPS + small amount of Kog2 (5 μM)) was “increases” and the “isoelectric point (pl)” value [2] was 12.38. The “peptide concentration at which 100% of the strain was killed” value [3] was 1.56 µM, the “antimicrobial activity compared to the other antimicrobial peptides (hBD2, lysozyme)” value [4] was “capable of killing a larger amount of Streptococcus mutans even at relatively low peptide concentration” and the “value of Type I collagen/β-actin versus no Kog2 added” value (MC3T3-E1 cells; Kog2 at 250 nM vs ctrl) was 3 times. For the same substance, the “concentration that best promotes differentiation into osteoblasts” value (MC3T3-E1 cells; tested 0, 250, 500, 1000 nM) was “about 250 nM”, the antimicrobial activity [5] was “capable of exerting antimicrobial activity” and the “peptide concentration at which 100% of the strain was killed” value [6] was 0.39 µM.
